# In US11213597B2, “Kinin-based theranostic probes for solid cancers and uses thereof” (SOCIETE DE COMMERCIALISATION DES PRODUITS DE LA RECHERCHE …, priority 2015, dated 2022):
# [ ]: non-standard residue; d: D form. The star is where a group is joined. NOTA = O=C(O)CN1CCN(CC(=O)O)CCN(CC(=O)*)CC1; Oic = O=C(O)[C@@H]1C[C@@H]2CCCC[C@@H]2N1; d2Nal = N[C@H](Cc1ccc2ccccc2c1)C(=O)O; αMeF = C[C@](N)(Cc1ccccc1)C(=O)O; Orn = NCCC[C@H](N)C(=O)O; βAla = NCCC(=O)O
# Columns and labels:
# 4T1/luc metastases = test: PET and bioluminescence imaging, 4T1/luc mouse mammary tumor metastasis model; assay type: in vivo; conditions: 4T1/luc mouse model
# Procedure: PET scans were performed using a LabPET8 (Gamma Medica Inc.) small animal scanner with an axial field of view of 8 cm. F98 GBM bearing rats were injected with 74 MBq (2 mCi; 100 μL) of novel ^64Cu radiolabeled B1R peptides (agonist or antagonist) with via the caudal vein under isoflurane anesthesia. PET scans were assessed 1 h and 20 h post-injections. […] The images were reconstructed by a three dimensional MLEM algorithm implementing an analytically derived system matrix (Selivanov et al., 2000, Nuclear Science, IEEE Transactions on, 47: 1168-1175). Regions of interest were traced for tumor, normal brain, heart, liver, kidney, and muscle, and the activity in each organ was measured and reported to the injected dose for percentages calculation. […] In vivo testing of the novel kinin PET radiotracers was also assessed in a model of tumor metastasis induced by the intracardiac injection of 4T1/luc (bioluminescent) mouse breast cancer cells under ultrasound guidance.
# [1] = test system: human solid tumors (e.g., brain and prostate) expressing naturally-occurring native B1R; test: PET imaging of solid tumors expressing native B1R (LN-CaP tumor-bearing nude mouse, F98); assay type: in vivo
# Procedure: FIGS. 4A-C illustrate in vitro cell uptake and anticancer activity of ^64Cu-NOTA-βAla-Orn^1-Arg^2-Oic^3-Pro^4-Gly^5-(αMe)Phe^6-Ser^7-DβNal^8-Ile^9-OH; ^64Cu-NOTA-B1RA) (SEQ ID NO: 6) in human prostate cancer cells (PC3 and LN-CaP). Cell uptake of ^64Cu-Nota-B1RA (in the presence or not of competitor R954) in PC3 cells measured at 20 h post-treatment by radiometric assays (A). Dose-dependent antiproliferative effects of ^64Cu-acetate and ^64Cu/Nota-B1RA on PC3 cells (B) and LN-CaP cells (C), assessed by clonogenic assays. FIG. 4 D illustrates the molecular imaging of prostate cancer with ^64Cu/Nota-B1RA. PET images of LN-CaP tumor-bearing nude mouse obtained after injection of 64Cu/Nota-B1RA (9 MBq) at 0.5 h post-injection (p.i.). […] FIG. 4F confirms the immunohistochemical (IHC) overexpression of B1R in tumoral tissues of LNCaP-bearing mice (blackiste dark-color).
# FIGS. 5A-C illustrate in vitro cellular/nuclear uptake and anticancer activity of ^64Cu-NOTA-βAla-Orn^1-Arg^2-Oic^3-Pro^4-Gly^5-(αMe)Phe^6-Ser^7-DβNal^8-Ile^9-OH (Cu/Nota-B1RA) (SEQ ID NO: 6) in F98 GBM cells. Cell uptake and nuclear localization of non-radioactive, free Cu and Cu/Nota-B1RA in F98 glioma cells measured at 20 h post-treatment by ICP-MS (A). Dose-dependent antiproliferative effects of ^64Cu-acetate, ^64Cu/Nota-B1RA on F98 wildtype (B) or shRNA-B1R knockdown F98 cells (C) using clonogenic assays. […]
substance,measurement,setting,value
^64Cu-NOTA-βAla-Orn^1-Arg^2-Oic^3-Pro^4-Gly^5-(αMe)Phe^6-Ser^7-DβNal^8-Ile^9-OH ({NOTA}-[βAla][Orn]R[Oic]PG[αMeF]S[d2Nal]I-OH; also: 64Cu complexed by NOTA),PET signal localization versus bioluminescent signals,4T1/luc metastases,colocalized with bioluminescent signals from (bone) metastases
same,non-invasive detection of solid tumors,[1],capacity to identify or detect non-invasively and rapidly human solid tumors
